Article PMC10490032, “From Monoamine Oxidase Inhibition to Antiproliferative Activity: New Biological Perspectives for Polyamine Analogs” (Molecules, 2023)

Tests used:
[1] = test system: MAO activity in LN-229 lysates; assay: MAO activity in LN-229 cell lysates, kynuramine assay; conditions: for Residual MAO activity in lysates: fraction of control
[2] = test system: LN-229 glioblastoma cell line; assay: Inhibition growth assay, Trypan blue exclusion; assay type: cell-based, human; conditions: LN-229, 48 h of incubation, mean ± SD of five independent experiments in duplicate
Source text: On this basis, we investigated the antiproliferative effect of compounds 1–7 on LN-229, a human glioblastoma cell line. Compound 1 and the well-known antitumor drug doxorubicin were taken as references. […] The data in Table 3 support the lack of cytotoxicity of compound 1.
The LN-229 (human glioblastoma) was purchased from the American Type Culture Collection (ATCC) and cultured in DMEM (D2902, Sigma Chemical Co., St. Louis, MO, USA) supplemented with 3.5 g/L of glucose and 5% heat-inactivated fetal calf serum (FCS) (F7524, Sigma Chemical Co.), respectively. A total of 100 U/mL of penicillin, 100 μg/mL of streptomycin, and 0.25 μg/mL of amphotericin B (Sigma Chemical Co.) were added to the medium. Cells were cultured at 37 °C in a humidified atmosphere incubator containing 5% carbon dioxide in air.
Cells (3–6 × 10^4/well) were seeded into a 24-well cell culture plate; after 24 h, different concentrations of the test compounds or reference drug were added. After 48 h of incubation in standard conditions, the cell viability was determined by using a Trypan blue exclusion assay. Briefly, cells were detached by using a […] and 0.3 mM EDTA solution in PBS and stained with 0.1% Trypan blue solution in PBS. Unstained viable cells were immediately counted in a Burker chamber. The percentage of viable cells was calculated with respect to the untreated control culture. […] The goodness of the fit was expressed by the r^2 coefficient, and the best fit report included the analysis of variance corrected for the mean of the observations with the p values (p < 0.005 for all the tested compounds). Data are the means ± SD of at least five independent experiments in duplicate.

human recombinant MAO A = target: T1, human recombinant MAO A (Homo sapiens, UniProt P21397); assay: MAO A inhibition, kynuramine assay (4-hydroxyquinoline fluorescence)
T1 sequence (P21397 1-527): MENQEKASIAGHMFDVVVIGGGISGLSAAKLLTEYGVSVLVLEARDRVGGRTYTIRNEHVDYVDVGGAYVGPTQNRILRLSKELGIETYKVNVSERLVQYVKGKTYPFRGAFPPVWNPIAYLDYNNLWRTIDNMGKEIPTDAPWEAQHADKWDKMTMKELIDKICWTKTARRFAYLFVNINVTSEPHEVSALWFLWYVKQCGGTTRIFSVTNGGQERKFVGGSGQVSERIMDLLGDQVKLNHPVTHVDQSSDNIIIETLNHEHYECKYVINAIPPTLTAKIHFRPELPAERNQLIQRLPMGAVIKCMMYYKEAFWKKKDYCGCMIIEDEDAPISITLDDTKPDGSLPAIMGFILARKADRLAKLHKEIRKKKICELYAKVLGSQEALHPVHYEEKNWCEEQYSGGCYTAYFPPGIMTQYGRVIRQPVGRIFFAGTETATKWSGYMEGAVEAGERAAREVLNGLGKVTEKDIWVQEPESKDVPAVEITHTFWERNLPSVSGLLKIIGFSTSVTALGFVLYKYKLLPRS
Source text: (§1) In plotting the ratio (Vo/VI) against the compound concentration, a linear dependence of Vo/VI on the inhibitor concentration should be obtained, and the Ki values could be calculated.
(§2) First, we evaluated the possibility of a time-dependence inhibition.
(§3) Then, the reversibility of the inhibition was verified.
(§4) Kynuramine was used as the substrate. The global fit analysis (Software GraphPad Prism 9.0) of the experimental data (velocity vs. substrate concentration at the various inhibitor concentrations) was applied by testing the equations for competitive, mixed, non-competitive, and uncompetitive inhibition models.
(§5) The mode of inhibition was determined with a global fit analysis (GraphPad 9.0 software, GraphPad Software, San Diego, CA, USA) of the initial rate of reaction (V0) vs. the substrate concentration plots in the presence and absence of the inhibitor to fit equations for competitive, mixed, non-competitive, and uncompetitive inhibition models; the fit giving the highest r^2 value was selected for the calculation of the inhibition constants (Ki).

human recombinant MAO B = target: T2, human recombinant MAO B (Homo sapiens, UniProt P27338); assay: MAO B inhibition, kynuramine assay (4-hydroxyquinoline fluorescence); conditions: for Mode of inhibition of MAO B: Lineweaver–Burk plots / global fit (compound 7: Figure S1)
T2 sequence (P27338 1-520): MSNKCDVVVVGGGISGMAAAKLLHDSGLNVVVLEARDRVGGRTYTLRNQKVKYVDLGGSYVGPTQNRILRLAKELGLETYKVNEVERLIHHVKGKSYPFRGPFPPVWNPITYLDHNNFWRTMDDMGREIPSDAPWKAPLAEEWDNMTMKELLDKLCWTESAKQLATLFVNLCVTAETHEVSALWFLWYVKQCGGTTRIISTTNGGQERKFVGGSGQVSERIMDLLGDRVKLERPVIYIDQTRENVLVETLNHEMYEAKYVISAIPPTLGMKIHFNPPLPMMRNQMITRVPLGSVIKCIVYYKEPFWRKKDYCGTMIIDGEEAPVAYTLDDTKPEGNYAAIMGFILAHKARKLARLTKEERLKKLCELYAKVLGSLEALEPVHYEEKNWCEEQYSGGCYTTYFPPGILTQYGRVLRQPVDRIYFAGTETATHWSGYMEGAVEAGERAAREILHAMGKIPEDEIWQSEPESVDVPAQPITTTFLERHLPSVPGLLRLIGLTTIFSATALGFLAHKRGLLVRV
Source text: as §1, §2, §3, §4, §5

[3] = inhibitor 5 nM, 15 min pre-incubation, 300 μM kynuramine
[4] = 5 μM compound for 25 min, diluted 50 times, 300 μM kynuramine
[5] = MAO A Ki, human recombinant MAO A, kynuramine 10 μM, from slope of Vo/VI vs compound concentration (1.25–40 μM), mean ± S.D.
[6] = pre-incubation 0 to 30 min with 2.5 μM compound, kynuramine 10 μM
[7] = MAO B Ki, human recombinant MAO B, kynuramine 10 μM, from slope of Vo/VI vs compound concentration (1.25–40 μM), mean ± S.D.
[8] = inhibitor 0.2 μM, 20 μM kynuramine

C#CCN(C)CCCOc1ccc(Cl)cc1Cl [Clorgyline, clorgyline]
Residual MAO activity in lysates [1, 3]: 0.34 ± 0.10

COc1ccccc1CNCCCCCCNc1ccc(CCc2ccc(NCCCCCCNCc3ccccc3OC)cc2)cc1 [Compound 4]
GI50 ([2]; Homo sapiens, LN-229, 48 h): < 1000 nM
GI50 [2]: 900 ± 200 nM
Effect on MAO activity in LN-229 lysates ([1]; kynuramine 20 μM, compound 0.05–8 μM): not affected
Reversibility of MAO A inhibition (human recombinant MAO A; [4]): full reversibility
Ki (human recombinant MAO A; KI (inhibition constant for the free enzyme) vs. MAO A, global fit, mixed model, inhibitor 0.25–2 μM, kynuramine varied): 620 ± 110 nM
Ki (human recombinant MAO A; KIES (dissociation constant for the enzyme–substrate complex) vs. MAO A, global fit, mixed model, inhibitor 0.25–2 μM, kynuramine varied): 11000 ± 2000 nM
Mode of inhibition of MAO A (human recombinant MAO A; Lineweaver–Burk plots / global fit): mainly competitive/mixed
Ki (human recombinant MAO A; [5]): 900 ± 200 nM
Time dependence of MAO A inhibition (Vo/VI ratio) (human recombinant MAO A; [6]): no time dependence of the inhibition was observed
Reversibility of MAO B inhibition (human recombinant MAO B; [4]): full reversibility
Ki (human recombinant MAO B; KI (inhibition constant for the free enzyme) vs. MAO B, global fit, mixed model, inhibitor 0.25–2 μM, kynuramine varied): 310 ± 50 nM
Ki (human recombinant MAO B; KIES (dissociation constant for the enzyme–substrate complex) vs. MAO B, global fit, mixed model, inhibitor 0.25–2 μM, kynuramine varied): 15000 ± 2000 nM
Mode of inhibition of MAO B (human recombinant MAO B): mainly competitive/mixed
Ki (human recombinant MAO B; [7]): 300 ± 100 nM
Time dependence of MAO B inhibition (Vo/VI ratio) (human recombinant MAO B; [6]): no time dependence of the inhibition was observed

COc1ccccc1CNCCCCCCN1Cc2ccc3c4c(ccc(c24)C1)CN(CCCCCCNCc1ccccc1OC)C3 [Compound 6]
GI50 ([2]; Homo sapiens, LN-229, 48 h): 2000 ± 900 nM
Ki (human recombinant MAO A; [5]): 37000 ± 4000 nM
Ki (human recombinant MAO B; [7]): 27000 ± 4000 nM

COc1ccccc1CNCCCCCCN1C(=O)c2ccc3c4c(ccc(c24)C1=O)C(=O)N(CCCCCCNCc1ccccc1OC)C3=O [Compound 7]
GI50 ([2]; Homo sapiens, LN-229, 48 h): 400 ± 100 nM
Ki (human recombinant MAO A; [5]): 3200 ± 200 nM
Mode of inhibition of MAO B (human recombinant MAO B): mainly competitive/mixed
Ki (human recombinant MAO B; [7]): 4200 ± 300 nM

COc1cccc2c1C(=O)c1c(O)c3c(c(O)c1C2=O)C[C@@](O)(C(=O)CO)C[C@@H]3O[C@H]1C[C@H](N)[C@H](O)[C@H](C)O1 [DOXO, doxorubicin, reference compound]
GI50 ([2]; Homo sapiens, LN-229, 48 h): 12 ± 4 nM

C#CCN(C)[C@H](C)Cc1ccccc1 [Deprenyl, deprenyl]
Residual MAO activity in lysates [1, 3]: 0.74 ± 0.04

COc1ccc2c(c1)[nH]c1c(C)nccc12 [Harmine, reference compound]
Residual MAO activity in lysates [1, 8]: 0.37 ± 0.08
Ki (human recombinant MAO B; MAO B Ki, human recombinant MAO B, kynuramine 10 μM, […], mean ± S.D.): > 10000 nM

C#CCN(C)Cc1ccccc1 [Pargyline, pargyline]
Residual MAO activity in lysates ([1]; inhibitor 0.5 mM, 15 min pre-incubation, 300 μM kynuramine): 0.03 ± 0.02
Residual activity in lysates after pre-incubation ([1]; pargyline pre-incubation 15 min, kynuramine 300 μM): about 3%

C[C@H](NCc1ccc(OCc2cccc(F)c2)cc1)C(N)=O [Safinamide]
Residual MAO activity in lysates [1, 8]: 0.66 ± 0.04

NCCC(=O)c1ccccc1N [kynuramine, reference compound]
Km ([1]; read-out: apparent KM in LN-229 lysates, substrate, Michaelis–Menten fit): 25 ± 3 µM
Km (human recombinant MAO B; read-out: KM for MAO B, substrate, human recombinant MAO B): 27 ± 4 µM
